In patent US20070191490A1, “Withacnistin compounds for treatment of cancer” (priority 2006, published 2007):

What was measured:
[1] = tested on: v-Src/3T3 tumors; test: Antitumor activity in nude mouse xenograft model, v-Src/3T3; assay type: in vivo; settings: v-Src/3T3 xenograft, nude mice, 1 mg/kg/day i.p.; Wit = withacnistin mixture
Text: (§1) Antitumor activity in the nude mouse tumor xenograft model. Nude mice (Charles River, Wilmington, Mass., USA) were maintained in accordance with the Institutional Animal Care and Use Committee (IACUC) procedures and guidelines. A549 cells were harvested, resuspended in PBS, and injected subcutaneously (s.c.) into the right and left flank (1×10^7 cells per flank) of 8-week-old female nude mice as reported previously (Blaskovich, M. A. et al. Cancer Res., 2003, 63:1270-1279). When tumors reached about 150 mm^3, animals were randomized (four animals per group; two tumors per animal) and dosed intraperitoneally (i.p.) either with cucurbitacin analogs (0.5 or 1 mg/kg/day, i.p.) in 20% DMSO in water or with an equal volume of vehicle control. The tumor volumes were determined by measuring the length (l) and the width (w) and calculating the volume (V=lw^2/2) as described previously (Blaskovich, M. A. et al. Cancer Res., 2003, 63:1270-1279). Statistical significance between control and treated animals were evaluated by using Student's t-test.
(§2) To determine the ability of the cucurbitacin analogs and withacnistin to inhibit tumor growth in vivo, the antitumor activity of the cucurbitacin analogs and withacnistin against both A549 and v-Src/3T3 tumors in a nude mouse xenograft model was evaluated. When the tumors became palpable (at volumes of approximately 100-150 mm^3), the mice were treated either with vehicle control or 1 mg/kg/day of the cucurbitacins or the withacnistin mixture. Tumor volumes were monitored by caliper measurement as previously described (Blaskovich, M. A. et al. Cancer Res., 2003, 63:1270-1279) and under Materials and Methods.
Withacnistin inhibited 57% of tumor growth while Cuc I, B, and E inhibited 45, 40, and 42% of tumor growth, respectively (FIG. 3 and Table 2).

[2] = tested on: A549 tumors; test: Antitumor activity in nude mouse xenograft model, A549; assay type: in vivo; settings: nude mice, 1 mg/kg/day i.p., Wit = withacnistin mixture
Text: as §1, §2

[3] = tested on: phosphotyrosine STAT3; test: P-STAT3 immunohistochemistry of A549 tumor sections; assay type: in vivo, nude mice; settings: 1 mg/kg/day; for P-STAT3 positive cells: termination day, control 76.5±1.4%
Description: P-STAT3 immunohistochemistry. On the termination day of the A549 antitumor experiment, tumors were extracted and fixed in 10% neutral-buffered formalin for 6 hours. After fixation, the tissue samples were processed into paraffin blocks. Tissue sections (5 μm) were dewaxed with xylene and rehydrated through descending alcohol to deionized water and then placed in PBS. Antigens were retrieved briefly with citrate buffer, pH 6.0, in a microwave followed by a mild trypsinization (0.025% trypsin in 50 mM Tris buffer containing 0.05% calcium chloride, pH 7.6). From this point, all steps were carried out in a DAKO Autostainer (DakoCytomation California, Inc., Carpinteria, Calif., USA). Sections were rinsed three times in TBS-Tween buffer, pH 7.6, then endogenous peroxidases were quenched with 3% hydrogen peroxide and nonspecific binding with 2% normal goat serum in 3% BSA/PBS. Sections then were incubated overnight with 1:400 phospho-STAT3 (Cell Signaling Technologies) at 4° C. in a humidified chamber. Detection was performed using the Elite ABC Rabbit kit (Vector Laboratories) and DAB chromogen (DakoCytomation California, Inc.) according to the manufacturer's instructions. Slides were counterstained for 20-30 seconds with modified Mayer's hematoxylin, dehydrated through ascending alcohol, cleared, and mounted with resinous mounting medium. Quantification was performed by counting both the phospho-STAT3-positive and -negative cells on slides representative of eight tumors and significance was determined by Student's t-test.
To determine whether phosphotyrosine STAT3 is targeted by withacnistin in vivo, and to determine if the results seen in cell culture concerning induction of apoptosis were occurring in tumors from animals treated with withacnistin, on the termination day of the A549 antitumor experiment, tumors from animals treated with Cuc A, Cuc I, and the withacnistin mixture, as well as vehicle control, were extracted and fixed in 10% neutral-buffered formalin and then processed into paraffin blocks for tissue sectioning. These tissue sections were stained separately with either TUNEL for determination of apoptosis, or phosphotyrosine STAT3 to determine if the signaling protein is inhibited in the tumors.

[4] = tested on: STAT3; test: Total STAT3 levels (STAT3 immunoprecipitation / immunoblot); assay type: cell-based, human; settings: A549 cells
Description: STAT3 immunoprecipitation. A549 cells were treated for 4 hour with vehicle or the withacnistin mixture, then lysed in 150 mM HEPES, pH 7.5, 150 mM NaCl, 1 mM EDTA, 0.5% NP-40, 10% glycerol, 5 mM NaF, 1 mM DTT, 1 mM PMSF, 2 mM sodium orthovanadate, and 5 μg/ml leupeptin. Sample lysates were collected and cleared, then 500 μg of lysate was immunoprecipitated with 50 ng STAT3 antibody overnight at 4° C., then rocked with 25 μl Protein A/G PLUS agarose (Santa Cruz Biotechnology) for 1 hour at 4° C. Samples were washed four times with lysis buffer, then boiled in 2×SDS-PAGE sample buffer and run on 10% SDS-PAGE gel. Protein was transferred to nitrocellulose then blotted as above for both phospho-specific STAT3 and STAT3.
(§3) As further support of the specific antiphosphotyrosine STAT3, but not antiphosphotyrosine JAK2, activity of withacnistin, A549 cells, as well as two breast carcinoma cell lines (MDA-MB-435 and MDA-MB-468) that also express constitutively activated JAK2 and STAT3, were treated with the withacnistin mixture at various concentrations, and determined IC50 values of inhibition of STAT3 and JAK2 activation. […] In all three cell lines, JAK2 activation was not inhibited at withacnistin concentrations as high as 10 μM. […] Thus, in all three cell lines, withacnistin (Wit) inhibits specifically STAT3 but not JAK2 activation and Cuc A inhibits JAK2 but not STAT3 activation whereas Cuc I inhibits the activation of both STAT3 and JAK2.

[5] = tested on: JAK2; test: Total JAK2 levels in A549 cells; assay type: cell-based, human; settings: 10 μM, data not shown
Description: as §3

| Structure (SMILES) | % Inhibition of tumor growth [1] | % Inhibition of tumor growth [2] | inhibition of phosphotyrosine-STAT3 compared to vehicle control [3] | P-STAT3 positive cells [3] | total STAT3 levels ([4]; 10 μM, 4 hours) | total JAK2 levels [5] | total STAT3 levels ([4]; by 24 hours, data not shown) |
| --- | --- | --- | --- | --- | --- | --- | --- |
| CC(=O)OC(C)(C)/C=C/C(=O)[C@](C)(O)[C@H]1[C@H](O)C[C@@]2(C)[C@@H]3CC=C4[C@@H](C[C@H](O)C(=O)C4(C)C)[C@]3(CO)C(=O)C[C@]12C [Cuc A, cucurbitacin A] | 16% | 11.1% | no inhibition | 80.8±1.8% | does not affect | none of the three compounds affects | – |
| CC(C)(O)/C=C/C(=O)[C@](C)(O)[C@H]1[C@H](O)C[C@@]2(C)[C@@H]3CC=C4[C@@H](C=C(O)C(=O)C4(C)C)[C@]3(C)C(=O)C[C@]12C [Cuc I, cucurbitacin I] | 45% | 55.4% | 28.5% | 54.7±4.5% | does not affect | none of the three compounds affects | – |
| CC(=O)OC[C@]12CC[C@H]3[C@@H](C[C@H]4O[C@]45[C@@H](O)C=CC(=O)[C@]35C)[C@@H]1CC[C@@H]2[C@H](C)[C@H]1CC(C)=C(C)C(=O)O1 [withacnistin] | 57% | 73.1% | 70.5% | 22.6±7.3% | without affecting | none of the three compounds affects | suppressed |
